Measurements from patent US8986689B2, “Compositions and methods for brain delivery of analgesic peptides” (National Research Council of Canada, priority 2010, dated 2015).
Non-standard residues stand in square brackets, D forms with d. No end group written: not given here.

Key:
[1] = tested on: male CD-1 mice; test: Tail flick assay (acute pain); type: in vivo, mouse; conditions: for Analgesic effect after intra-cerebroventricular injection: 15 min and 30 min after injection
[2] = molecular target: opioid receptors (Rattus norvegicus, UniProt P33535); test: Opioid receptor binding competition assay against 3H-DAMGO in isolated rat brain membranes; conditions: 30 nM 3H-DAMGO, capillary-depleted rat brain membranes
Experimental: The homogenate was centrifuged at 5800×g (10,000 rpm; Beckman L8-70 Ultracentrifuge, Rotor: SW 40) for 20 min at 4 degrees. The upper parenchyma layer was then collected and centrifuged under the same conditions. The upper parenchyma layer was again collected, and 1 Volume of 50 mM Tris-buffer pH 7.4 containing [2×] of protease inhibitor was added to the collected parenchyma. The mixture was homogenized using a motorized pestle. The homogenate was centrifuged at 46,000×g for 15 minutes at 4° C. The supernatant was removed and the pellet re-suspended in 1 Volume Tris-buffer pH 7.4 containing [2×] of protease inhibitor. The re-suspended pellet was incubated at 37° C. for 15 minutes with agitation in a 50 ml conical tube to dissociate endogenous opioids from receptors. After incubation, the homogenate was centrifuged at 46,000×g for 15 minutes at 4° C. The supernatant was again removed and the pellet re-suspended in 1 to 1.5 Volume Tris-buffer pH 7.4 containing [1×] of protease inhibitor. The membrane preparation was aliquoted into 1.5 ml tubes in 1 ml samples and stored at −80° C.
Opioid Receptor binding assay used a μ opioid receptor agonist, ^3H-DAMGO, to bind to opioid receptors present in the rat brain membrane preparation. Displacement studies were done with unlabelled ligands, Dalargin, and Dalargin-FC5. Briefly, diluted reagents were prepared using 50 mM Tris-buffer pH7.4, as follows: • i. […] 500 nM FC5-Dal: 16.67 μl 30 μM FC5-Dal and 1 ml Tris-buffer; • v.
Tris-buffer was added to each well, followed by a range of Dalargin concentrations, followed by ^3H-DAMGO. The reaction mixture was left at RT with gentle orbital shaking for 1.5 hr. A scintillation cocktail was then added and radioactive counts were measured using beta scintillation counter.
Specific activity for ^3H-DAMGO was 56.8 Ci/mmol. Percentage specific bound at each concentration of unlabelled competitor was calculated using the formula: % specific bound=Bound/Total bound*100.

[3] = tested on: Immortalized Adult Rat brain endothelial cells (ARBEC); test: Transport across in vitro blood brain barrier model; conditions: Cy5.5-labelled, 10 μg/ml added to apical chamber, ARBEC monolayer
Experimental: FC5 and FC5-Dalargin were labelled by covalent conjugation to Cy5.5 N-hydroxysuccinimide (NHS) ester using methods recommended by the manufacturer (GE Healthcare). Cy5.5 NHS was bound to FC5 through a thioether covalent bond.
Immortalized Adult Rat brain endothelial cells (ARBEC) were used as the in vitro blood brain barrier model. ARBEC (80,000 cells/membrane) were seeded on a 0.5% gelatine-coated Falcon tissue culture inserts (pore size-1 μm; surface area 0.83 cm^2) in 1 ml of growth medium. The bottom chamber of the insert assembly contained 2 ml of growth medium supplemented with the fetal human astrocyte-conditioned medium in a 1:1 (v/v) ratio.
Transport studies were performed 7 days post-seeding. Filter inserts were rinsed with transport buffer (PBS containing 5 mM glucose, 5 mM MgCl2, 10 mM HEPES, 0.05% BSA, pH 7.4) and allowed to equilibrate at 37° C. for 30 minutes. Experiments were initiated by adding 10 μg/ml Cy5.5-labelled FC5-Dalargin or Cy5.5-labelled FC5 to the apical chamber. Aliquots (100 μl) were collected from the opposite chamber at various time intervals (5, 15, 30, 60, 120 minutes) and replaced with fresh buffer. The amount of FC5-Dalargin transported across HCEC monolayers was determined by fluorescence in a fluorescence plate reader.

[4] = tested on: male Wistar rats; test: Paw flick assay (Hargreaves method, CFA chronic inflammatory pain); type: in vivo, rat; conditions: for Analgesic effect after intravenous injection: tail vein, three injections at 0, 1 and 2 h, Dalargin-cys 0.34 mg/kg, FC5 and EG2-Dalargin 7 mg/kg
Experimental: (§1) Chronic inflammatory pain was induced in 4-6 week old male Wistar rats, by a intra-plantar (i.pl.) injection (100 μl with a 30-gauge needle) of complete Freund's adjuvant in sterile water in a ratio of 1:1 in the right hind paw under brief isoflurane anesthesia (3%). Three days after CFA injection the putative antinociceptive effect of different compounds was quantified by measuring latencies of withdrawal of both hind limb paws (ipsilateral and contralateral to CFA injection) in response to radiant heat using digitalized plantar Analgesia Meter for paw stimulation (IITC Model #336TG Life Science, Inc.). A rapid paw withdrawal on the side of CFA injection (compared to the contralateral non-injected paw) was indicative of inflammatory pain. During the training period (before experiments), the light-intensity lamp was adjusted to elicit baseline paw withdrawal latencies between 17 to 20 s (in rats). […] Results were analyzed as temporal courses of paw withdrawal latency (sec) versus time (min or hrs) and expressed as % of maximum possible effect (% MPE) as described in Example 5. A subcutaneous injection of morphine 10 mg/kg served as a positive control.
For intra-cerebroventricular injections in rats, a longitudinal incision was made in the scalp to identify the bregma; then animals received a unilateral 5 μl intra-cerebroventricular injection of either FC5-Dalargin or Dalargin alone approximately 0.8 mm anterioposterior (AP) level of bregma, 1.5 mm with respect to the midline and 3.5 mm ventral from the skull surface. Injections were made using a Hamilton syringe equipped with a 25-gauge needle. Injection depth was controlled by a plug on the needle to prevent more than 3.5 mm penetration beyond the skull surface.
In contrast, FC5-Dalargin induced cumulative analgesia after each i.v. dosing, reaching 100% MPE 45 min-1 hour after the third injection and gradually ‘washing-out’ over a subsequent three hours (FIG. 12, closed triangles), similar to what was observed after intra-cerebroventricular injections of Dalargin-cys and FC5-Dalargin (FIGS. 10 and 11). If Fc5-Dalargin injection was given 4th time at 3 h (FIG. 12, open polygons), the ‘wash-out’ (i.e., disappearance of analgesic effect) was somewhat extended. […] When Dalargin is functionalized with the blood-brain barrier ‘carrier’ single domain antibody, FC5, Dalargin becomes efficacious in inducing analgesia in chronic pain because FC5 enables its delivery across the blood brain barrier to the sites of its pharmacological action, central opioid receptors.
as §1, with “5-7 weeks” for “4-6 week”, “5.” for “5. A subcutaneous injection of morphine 10 mg/kg served as a positive control.”
Rats received 5 μl intra-cerebroventricular injections of NPY (1 μg) as described in Example 6.
NPY was then injected intravenously in the tail vein in two injections, each containing 2.02 mg/kg of NPY, 1 h apart from each other as described in Example 6. […]

[5] = 0.86 mg/kg of Dalargin, intra-carotid, 30 min after injection
[6] = 1.72 mg/kg of Dalargin, intra-carotid, 30 min after injection

Chain of opioid receptors (P33535 whole entry): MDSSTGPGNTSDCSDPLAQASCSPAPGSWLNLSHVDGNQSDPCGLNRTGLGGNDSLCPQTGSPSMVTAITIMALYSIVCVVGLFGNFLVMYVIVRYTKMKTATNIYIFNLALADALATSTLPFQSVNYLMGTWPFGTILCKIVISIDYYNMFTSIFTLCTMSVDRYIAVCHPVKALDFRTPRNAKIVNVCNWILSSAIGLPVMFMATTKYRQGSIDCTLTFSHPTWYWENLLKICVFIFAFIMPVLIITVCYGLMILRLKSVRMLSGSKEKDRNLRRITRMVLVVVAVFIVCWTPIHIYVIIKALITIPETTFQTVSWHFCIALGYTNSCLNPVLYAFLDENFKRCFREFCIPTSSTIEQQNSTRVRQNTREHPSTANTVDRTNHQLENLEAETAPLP

With “Tyr-[D-Ala]-Gly-Phe-Leu-Arg (Y[dA]GFLR) [Dalargin]” the “% MPE (30 min)” value [1, 5] was 19%, the “% MPE (30 min)” value [1, 6] was 17% and the “Time of return to basal levels after intra-cerebroventricular injection” value ([1]; icv) was 60 min. The “Analgesic effect after intra-cerebroventricular injection” value ([1]; icv) was “reaching maximal latency of response” and the “Analgesic effect after intra-carotid injection” value ([1]; intra-carotid, 0.86 and 1.72 mg/kg) was “No analgesic effect”.

With “FC5-Dalargin: FC5 sdAb conjugated via Sulfo-SMCC cross-linker to Dalargin-cysteamide” the “Displacement of 3H-DAMGO (receptor binding competition)” value (from here on “Displacement of 3H-DAMGO”) [2] was “only slightly less potent than Dalargin”, the “% MPE (30 min)” value [1, 5] was 63% and the “% MPE (30 min)” value ([1]; 0.86 mg/kg of Dalargin, intra-carotid, 30 min after injection, listed as FC5-Dal) was 63%. The “% MPE (30 min)” value [1, 6] was 66%, the “% MPE (30 min)” value ([1]; 1.72 mg/kg of Dalargin, intra-carotid, 30 min after injection, listed as FC5-Dal) was 66% and the “Maximal analgesia, % of maximum effect” value ([1]; icv, 30 min after injection) was 40%. The “Persisting analgesia, % above basal levels” value ([1]; icv, for up to 90 min) was 10-15%, the “Permeability co-efficients (Pe)” value [3] was 0.00025 cm/min and the “% MPE” value ([4]; i.v. 7 mg/kg, three injections at 0, 1, 2 h, 45 min-1 hour after the third injection) was 100%. The “Analgesic effect after icv injection” value ([4]; icv, 74.4 μg) was “complete analgesia” and the “Duration of analgesia after icv injection” value ([4]; icv, 74.4 μg) was 120 min.

With CN1CC[C@]23c4c5ccc(O)c4O[C@H]2[C@@H](O)C=C[C@H]3[C@H]1C5 [Morphine, morphine] the “% of the maximal analgesic effect (observed with 10 mg/kg morphine)” value ([1]; 3 mg/kg s.c.) was “approximately 50%”, the “% MPE (30 min)” value ([1]; 3 mg/kg sc, 30 min after injection) was 56% and the Tail flick latency ([1]; 10 mg/kg morphine s.c., 30 min after injection, cut-off 10 sec) was 10 s. The “% MPE (30 min)” value ([1]; 10 mg/kg sc, 30 min after injection) was 100%, the “Effect on CFA-injected paw withdrawal latency” value ([4]; 10 mg/kg subcutaneous, positive control) was “prompt increase in CFA-injected paw withdrawal latency to values of the contralateral, non-inflamed paw” and the “Duration of the increase in paw withdrawal latency” value ([4]; 10 mg/kg subcutaneous, then slowly diminishing over 3 hours) was 60 min.

“Dalargin-cysteamide-OH (Y[dA]GFLR; not fully specified (C-terminus)) [Dalargin with a cysteamide-OH residue used for conjugation]” was tested, and the “Displacement of 3H-DAMGO” value [2] was “only slightly less potent than Dalargin”, the “Time of return to basal levels after intra-cerebroventricular injection” value ([1]; icv) was 60 min and the “Analgesic effect after intra-cerebroventricular injection” value ([1]; icv) was “reaching maximal latency of response”. For the same molecule, the “% of maximal effect” value ([4]; icv, 1.08 μg) was 75%, the “% MPE” value ([4]; icv, 10.08 μg) was 100% and the “Analgesic effect after intravenous injection” value [4] was “did not increase latency of withdrawal of the inflamed paw”.

B1: FC5: blood-brain barrier-transmigrating single domain antibody, SEQ ID NO:4, expressed with His5 and c-myc tags (protein)
VHH: EVQLQASGGGLVQAGGSLRLSCAASGFKITHYTMGWFRQAPGKEREFVSRITWGGDNTFYSNSVKGRFTISRDNAKNTVYLQMNSLKPEDTADYYCAAGSTSTATPLRVDYWGKGTQVTVSS
modifications: His5 and c-myc tags; FC5 sdAb
For B1, the “Displacement of 3H-DAMGO” value [2] was “did not displace”, the “Permeability co-efficients (Pe)” value [3] was 0.000195 cm/min and the “Analgesic effect after intravenous injection” value [4] was “Neither FC5 alone nor EG2-Dalargin construct induced any analgesic effect”.
